Test results reported in US20020045668A1, “Compositions for sustained release of analgesic agents, and methods of making and using the same” (priority 2000, published 2002).

Details: cited from earlier work
In the case of CC(C)CCC[C@@H](C)[C@H]1CC[C@H]2[C@@H]3CC=C4C[C@@H](O)CC[C@]4(C)[C@H]3CC[C@]12C [Cholesterol], the “Solubility in Organic Solvents” value is listed as 1 in 4.5 chloroform.
In the case of CCCCC(CC)COC(=O)CC(C(=O)OCC(CC)CCCC)S(=O)(=O)O (stereo not drawn) [Docusate], the “Solubility in Organic Solvents” value is given as 1 in 1.
For OC[C@@H](O)[C@@H](O)[C@H](O)[C@H](O)CO [Mannitol], the “Solubility in Organic Solvents” value is listed as “Practically insoluble”.
For O=C1NS(=O)(=O)c2ccccc21 [Saccharin], the “Solubility in Organic Solvents” value is given as “Slightly soluble”.
In the case of C/C=C/C=C/C(=O)O [Sorbic acid], the “Solubility in Organic Solvents” value is given as 1 in 15 chloroform.

Details: data not shown
In the case of CCN(CC)CC(=O)Nc1c(C)cccc1C [pure lidocaine, lidocaine], the “T80% (time required for 80% of lidocaine to be released)” value is reported as “less than 30 minutes”.
